Source: paper PMC9728921, “Characterization of a KDM5 small molecule inhibitor with antiviral activity against hepatitis B virus” (PLOS ONE, 2022)

Experiments:
[1] = Cytotoxicity CC50, Gal-HepG2; type: cell-based; settings: human, Gal-HepG2 cells (galactose adapted hepatoblastoma cell line)
Excerpt: (§1) a Values represent the geometric mean and multiplicative standard deviation of 3 – 5 primary human hepatocyte (PHH) donors or 5 – 10 independent experiments.
(§2) b MT-4: human T-lymphoblastoid cell line; PBMC: peripheral blood mononuclear cell; Gal-HepG2: galactose adapted human hepatoblastoma cell line; Huh-7: human hepatoma cell line; Gal-PC3: galactose adapted human prostate carcinoma cell line; MRC-5: Medical Research Council 5 embryonal lung fibroblast; NRVM: neonatal rat ventricular cardiomyocytes

[2] = Cytotoxicity CC50, Huh-7; type: cell-based; settings: human, Huh-7 cells (hepatoma cell line)
Excerpt: as §1, §2

[3] = Cytotoxicity CC50, Gal-PC3; type: cell-based; settings: human
Excerpt: as §1, §2

[4] = Cytotoxicity CC50, MRC-5; type: cell-based; settings: human, MRC-5 cells (embryonal lung fibroblasts)
Excerpt: as §1, §2

[5] = Cytotoxicity CC50, NRVM; type: cell-based; settings: rat, NRVM (neonatal rat ventricular cardiomyocytes)
Excerpt: as §1, §2

[6] = tested on: HBV; test: Secreted HBsAg by immunoassay in HBV-infected PHH; type: cell-based; settings: Hepatitis B virus
Procedure: (§3) Approximately 24 hours after plating, PHH were infected with HepAD38-derived GTD virus at 500 viral genome equivalents per cell in maintenance medium supplemented with 4% PEG 8000 (Promega, Madison, WI; V3011). For patient sera infections, PHH were infected with 6 μl of patient sera in maintenance medium supplemented with 4% PEG 8000. Infections were allowed to proceed for 20–24 hours before removing remaining extracellular virions by washing with maintenance medium three times. […]
(§4) Hepatitis B e antigen (HBeAg) and Hepatitis B surface antigen (HBsAg) were detected in culture media at the indicated time by ELISA or electrochemiluminescence assay (MSD). The HBeAg and HBsAg ELISAs were performed using the HBeAg ELISA kit (International Immuno-Diagnostics, Foster City, CA) and HBsAg ETI-MAK-2 plus kit (DiaSorin, Stillwater, MN), respectively according to the manufacturer’s instructions. Concentrations were calculated by interpolation from standard curves with purified HBeAg and HBsAg. The MSD assay was performed according to the manufacturer’s instructions (Meso Scale Diagnostics, Rockville, MD). Briefly, cultured supernatants were inactivated with 0.5% Triton X-100 (30 minutes at 37°C) and then transferred into plates pre-spotted with both an anti-HBeAg antibody (Genway Bio, San Diego, CA) and a custom anti-HBsAg antibody. The plates were then incubated for two hours at room temperature with gentle shaking, followed by a wash step in PBS with 0.5% Tween. MSD sulfate tags anti-A and anti-B (1 μg/mL each) were then added to the wells and the plates incubated for a further two hours at room temperature with gentle shaking, followed by another wash step in PBS with 0.5% Tween. A 2X solution of MSD T Buffer Read was then added and the plate was read on a Sector Imager 6000 plate scanner.
(§5) Antiviral activity of test compounds was determined from vRNA, vDNA, HBeAg, and HBsAg data by comparing compound-treated PHH to DMSO (vehicle)-treated PHH to generate a percent of DMSO control value (% DMSO control). The % DMSO control was calculated by the following equation: %DMSOControl=100xXc/XD where Xc is the signal from the compound-treated PHH and XD is the signal from the DMSO-treated PHH. The % DMSO control for vRNA, vDNA, HBeAg, HBsAg, GAPDH, or RPLP0 was plotted versus the log of each compound concentration in GraphPad Prism (version 6; Graphpad Software, LaJolla, CA) to generate dose-response curves. […] Dose-response curves were fitted using the nonlinear regression equation “log(agonist) versus response–variable slope (four parameters)” in GraphPad Prism to determine EC50 values.

[7] = tested on: HBV; test: Secreted HBeAg by immunoassay in HBV-infected PHH; type: cell-based; settings: Hepatitis B virus
Procedure: as §3, §4, §5

[8] = tested on: HBV; test: HBV antiviral activity in HBV-infected PHH (overall; HBsAg and HBeAg over time); type: cell-based, Hepatitis B virus
Procedure: Approximately 24 hours after plating, PHH were infected with HepAD38-derived GTD virus at 500 viral genome equivalents per cell in maintenance medium supplemented with 4% PEG 8000 (Promega, Madison, WI; V3011). For patient sera infections, PHH were infected with 6 μl of patient sera in maintenance medium supplemented with 4% PEG 8000. Infections were allowed to proceed for 20–24 hours before removing remaining extracellular virions by washing with maintenance medium three times.
For the pulse dose regimen, medium containing compound was removed after two hours incubation and replaced with fresh maintenance medium every three to four days. Cells in the pulse dose experiment received only one dose of compound (Day = 0).
as §4

[9] = read-out: HBsAg EC50, PHH donor BCD, HBV GTD, treated every three to four days for 14 days
[10] = read-out: HBsAg EC50, PHH donor Hu276, HBV GTD, treated every three to four days for 14 days
[11] = read-out: HBsAg EC50, PHH donor Hu349, HBV GTD, treated every three to four days for 14 days
[12] = read-out: HBsAg EC50, PHH donor Hu4167, HBV GTD, treated every three to four days for 14 days
[13] = read-out: HBsAg EC50, PHH donor Hu7272, HBV GTD, treated every three to four days for 14 days
[14] = read-out: HBsAg EC50, PHH donor Hu8130, HBV GTD, treated every three to four days for 14 days
[15] = read-out: HBsAg EC50, PHH donor Hu8181, HBV GTD, treated every three to four days for 14 days
[16] = read-out: HBeAg EC50, PHH donor BCD, HBV GTD, treated every three to four days for 14 days
[17] = read-out: HBeAg EC50, PHH donor Hu276, HBV GTD, treated every three to four days for 14 days
[18] = read-out: HBeAg EC50, PHH donor Hu349, HBV GTD, treated every three to four days for 14 days
[19] = read-out: HBeAg EC50, PHH donor Hu4167, HBV GTD, treated every three to four days for 14 days
[20] = read-out: HBeAg EC50, PHH donor Hu7272, HBV GTD, treated every three to four days for 14 days
[21] = read-out: HBeAg EC50, PHH donor Hu8130, HBV GTD, treated every three to four days for 14 days
[22] = read-out: HBeAg EC50, PHH donor Hu8181, HBV GTD, treated every three to four days for 14 days
[23] = 10 μM every three to four days, three PHH donors

| SMILES | CC50 [1] [nM] | CC50 [2] [nM] | CC50 [3] [nM] | CC50 [4] [nM] | CC50 [5] [nM] | EC50 [6, 9] [nM] | EC50 [6, 10] [nM] | EC50 [6, 11] [nM] | EC50 [6, 12] [nM] | EC50 [6, 13] [nM] | EC50 [6, 14] [nM] | EC50 [6, 15] [nM] | EC50 [7, 16] [nM] | EC50 [7, 17] [nM] | EC50 [7, 18] [nM] | EC50 [7, 19] [nM] | EC50 [7, 20] [nM] | EC50 [7, 21] [nM] | EC50 [7, 22] [nM] | further results |
| --- | --- | --- | --- | --- | --- | --- | --- | --- | --- | --- | --- | --- | --- | --- | --- | --- | --- | --- | --- | --- |
| CCN(CCN(C)C)C(=O)CNCc1cc(C(=O)O)ccn1 [GS-080] | > 44000 | > 44000 | > 44000 | > 44000 | > 44000 |  |  |  |  |  |  |  |  |  |  |  |  |  |  |  |
| CCOC(=O)c1ccnc(CNCC(=O)N(CC)CCN(C)C)c1 [GS-5801] | > 44000 | > 44000 | > 44000 | > 44000 | > 44000 | 15 | 150 | 970 | 240 | 5100 | 1700 | 61 | 14 | 100 | 380 | 150 | 610 | 1100 | 110 | EC50 ([6]; 336 h, read-out: EC50, secreted HBsAg, across HBV genotypes (summary value), 14 days of dosing): 170 nM; EC50 ([6]; 336 h, read-out: EC50 range across genotypes, secreted HBsAg, range across genotypes, 14 days of dosing): 36 to 3100 nM; EC50 ([6]; 336 h, read-out: EC50 range for secreted HBsAg, range over the seven PHH donors tested, HBV GTD, Day 14): 15 to 1700 nM; EC50 ([6]; read-out: HBsAg EC50, PHH infected with HBV GTA, treated every three to four days for 13 days): 36 nM; EC50 ([6]; read-out: HBsAg EC50, PHH infected with HBV GTC, treated every three to four days for 13 days): 120 nM; EC50 ([6]; read-out: HBsAg EC50, PHH infected with HBV GTD, treated every three to four days for 13 days (Table 3)): 220 nM; EC50 ([6]; read-out: HBsAg EC50, PHH infected with HBV GTE, treated every three to four days for 13 days): 3100 nM; EC50 ([7]; 336 h, read-out: EC50 range across genotypes, secreted HBeAg, range across genotypes, 14 days of dosing): 300 to 1400 nM; EC50 ([7]; 336 h, read-out: EC50 range for secreted HBeAg, range over the seven PHH donors tested, HBV GTD, Day 14): 14 to 1100 nM; EC50 ([7]; read-out: HBeAg EC50, PHH infected with HBV GTA, treated every three to four days for 13 days): 1100 nM; EC50 ([7]; read-out: HBeAg EC50, PHH infected with HBV GTD, treated every three to four days for 13 days (Table 3)): 300 nM; EC50 ([7]; read-out: HBeAg EC50, PHH infected with HBV GTE, treated every three to four days for 13 days): 1400 nM; time course throughout which antiviral activity was maintained [8, 23]: 30 to 32 days; time to maximal HBsAg and HBeAg inhibition after initiation of treatment [8, 23]: 12 to 17 days; time inhibition of HBeAg and HBsAg was sustained following a pulse dose ([8]; single two-hour pulse dose, 10 μM, donor): up to 20 days |
| CCOC(=O)c1cc(CNCC(=O)N(CC)CCN(C)C)ncc1Br [GS-420] |  |  |  |  |  | > 10000 | > 10000 | > 10000 | > 10000 | > 10000 | > 10000 | > 10000 | > 10000 | > 10000 | > 10000 | > 10000 | > 10000 | > 10000 | > 10000 | HBV antiviral activity in PHH ([8]; concentrations up to 10 μM): did not exhibit HBV antiviral activity |
